From patent publication US10015966B2, “Fungicidal pyrazole mixtures” (E I DU PONT DE NEMOURS AND COMPANY, priority 2012, dated 2018)
Marks after values point to notes of the source that are not given here.

What was measured:
[1] = Single oral dose pharmacokinetics in rats, plasma and fat analysed by LC/MS (fat:plasma ratio); type: in vivo; conditions: single dose via oral gavage, compared to corresponding compounds with a nonhydrogen substituent at the para position of the phenyl ring connected to R^1 and R^2
Protocol: The pharmacokinetic properties of compounds of Formula 1 can be measured using a wide variety of assay protocols known in the science of pharmacology. In one illustrative method involving a single oral dose, three male and three female rats receive a single dose of a test substance via oral gavage. Approximately 0.25 mL of blood is collected via tail vein immediately prior to dosing, and then at 0.25, 0.5, 1, 2, 4, 8, 12, 24 h and every 24 h thereafter until sacrifice. At sacrifice, fat is also collected to determine the fat:plasma ratio at sacrifice. Blood is collected into tubes that contain ethylenediaminetetracetic acid (EDTA) and centrifuged at 2500×g in order to separate plasma from blood cells. The plasma is then extracted by protein precipitation using, for example, acetonitrile and a protein precipitation plate (e.g., Strata Impact Protein Precipitation Plate, part number CEO-7565 of Phenomenex, Torrance, Calif., U.S.A.) following directions provided for the plate. Alternatively, the plasma is extracted just with acetonitrile, vortexed (i.e. mixed using a vortex mixer), and centrifuged to pellet the proteins. After removal of the proteins, the plasma is analyzed for parent compound and/or metabolites by liquid chromatography-mass spectrometry (LC/MS). The fat is homogenized and extracted by an organic solvent such as acetonitrile. The extract is then analyzed for parent compound and/or metabolites by LC/MS. The plasma pharmacokinetic data is then analyzed using nonlinear modeling software (e.g., WinNonlin™ from Pharsight, Cary, N.C., U.S.A.) to determine half-life of the administered compound in plasma, the time after administration when the maximum plasma concentration is reached (Tmax), the maximum plasma concentration (Cmax) and the area under the plasma concentration curve (AUC). As analysis of fat requires rat sacrifice, fat data is obtained at single time points (i.e. the time of rat sacrifice). However, by using multiple rats sacrificed after different intervals from time of dosing, such parameters as Cmax for fat are determined.

Septoria tritici = assay: Test F: preventive spray on wheat seedlings, wheat leaf blotch, visual disease rating; type: in vivo; conditions: Zymoseptoria tritici, 200 ppm test suspension
Protocol: General protocol for preparing test suspensions for Tests A-I: the test compounds were first dissolved in acetone in an amount equal to 3% of the final volume and then suspended at the desired concentration (in ppm) in acetone and purified water (50/50 mix by volume) containing 250 ppm of the surfactant Trem® 014 (polyhydric alcohol esters). The resulting test suspensions were then used in Tests A-I. Each test was conducted in triplicate, and the results were averaged. Spraying a 200 ppm test suspension to the point of run-off on the test plants was the equivalent of a rate of about 800 g/ha. Unless otherwise indicated, the rating values indicate a 200 ppm test suspension was used. (An asterisk “*” next to the rating value indicates a 40 ppm test suspension was used.) The test suspension was sprayed to the point of run-off on wheat seedlings. The following day the seedlings were inoculated with a spore suspension of Septoria tritici (the causal agent of wheat leaf blotch) and incubated in saturated atmosphere at 24° C. for 48 h. and then the seedlings were moved to a growth chamber at 20° C. for 19 additional days, after which time visual disease ratings were made. Results for Tests A-I are given in Table A. In the Table, a rating of 100 indicates 100% disease control and a rating of 0 indicates no disease control (relative to the controls). A hyphen (-) indicates no test results.

[2] = system: Blumeria graminis f. sp. tritici; assay: Test I: preventive spray on wheat seedlings, wheat powdery mildew, visual disease rating; type: in vivo; conditions: 192 h, 200 ppm test suspension
Protocol: General protocol for preparing test suspensions for Tests A-I: the test compounds were first dissolved in acetone in an amount equal to 3% of the final volume and then suspended at the desired concentration (in ppm) in acetone and purified water (50/50 mix by volume) containing 250 ppm of the surfactant Trem® 014 (polyhydric alcohol esters). The resulting test suspensions were then used in Tests A-I. Each test was conducted in triplicate, and the results were averaged. Spraying a 200 ppm test suspension to the point of run-off on the test plants was the equivalent of a rate of about 800 g/ha. Unless otherwise indicated, the rating values indicate a 200 ppm test suspension was used. (An asterisk “*” next to the rating value indicates a 40 ppm test suspension was used.) The test suspension was sprayed to the point of run-off on wheat seedlings. The following day the seedlings were inoculated with a spore dust of Blumeria graminis f. sp. tritici (also known as Erysiphe graminis f. sp. tritici, the causal agent of wheat powdery mildew) and incubated in a growth chamber at 20° C. for 8 days, after which time visual disease ratings were made. Results for Tests A-I are given in Table A. In the Table, a rating of 100 indicates 100% disease control and a rating of 0 indicates no disease control (relative to the controls). A hyphen (-) indicates no test results.

[3] = system: Puccinia recondita f. sp. tritici; assay: Test H: preventive spray on wheat seedlings, wheat leaf rust, visual disease rating; type: in vivo; conditions: 200 ppm test suspension
Protocol: General protocol for preparing test suspensions for Tests A-I: the test compounds were first dissolved in acetone in an amount equal to 3% of the final volume and then suspended at the desired concentration (in ppm) in acetone and purified water (50/50 mix by volume) containing 250 ppm of the surfactant Trem® 014 (polyhydric alcohol esters). The resulting test suspensions were then used in Tests A-I. Each test was conducted in triplicate, and the results were averaged. Spraying a 200 ppm test suspension to the point of run-off on the test plants was the equivalent of a rate of about 800 g/ha. Unless otherwise indicated, the rating values indicate a 200 ppm test suspension was used. (An asterisk “*” next to the rating value indicates a 40 ppm test suspension was used.) The test suspension was sprayed to the point of run-off on wheat seedlings. The following day the seedlings were inoculated with a spore suspension of Puccinia recondita f. sp. tritici (the causal agent of wheat leaf rust) and incubated in a saturated atmosphere at 20° C. for 24 h, and then moved to a growth chamber at 20° C. for 6 days, after which time visual disease ratings were made. Results for Tests A-I are given in Table A. In the Table, a rating of 100 indicates 100% disease control and a rating of 0 indicates no disease control (relative to the controls). A hyphen (-) indicates no test results.

Botrytis cinerea = assay: Test A: preventive spray on tomato seedlings, tomato Botrytis, visual disease rating; type: in vivo; conditions: 200 ppm test suspension
Protocol: General protocol for preparing test suspensions for Tests A-I: the test compounds were first dissolved in acetone in an amount equal to 3% of the final volume and then suspended at the desired concentration (in ppm) in acetone and purified water (50/50 mix by volume) containing 250 ppm of the surfactant Trem® 014 (polyhydric alcohol esters). The resulting test suspensions were then used in Tests A-I. Each test was conducted in triplicate, and the results were averaged. Spraying a 200 ppm test suspension to the point of run-off on the test plants was the equivalent of a rate of about 800 g/ha. Unless otherwise indicated, the rating values indicate a 200 ppm test suspension was used. (An asterisk “*” next to the rating value indicates a 40 ppm test suspension was used.) The test suspension was sprayed to the point of run-off on tomato seedlings. The following day the seedlings were inoculated with a spore suspension of Botrytis cinerea (the causal agent of tomato Botrytis) and incubated in saturated atmosphere at 20° C. for 48 h, and then moved to a growth chamber at 24° C. for 3 additional days, after which time visual disease ratings were made. Results for Tests A-I are given in Table A. In the Table, a rating of 100 indicates 100% disease control and a rating of 0 indicates no disease control (relative to the controls). A hyphen (-) indicates no test results.

Septoria nodorum = assay: Test E: preventive spray on wheat seedlings, Septoria glume blotch, visual disease rating; type: in vivo; conditions: asterisked rating: test suspension other than 200 ppm
Protocol: General protocol for preparing test suspensions for Tests A-I: the test compounds were first dissolved in acetone in an amount equal to 3% of the final volume and then suspended at the desired concentration (in ppm) in acetone and purified water (50/50 mix by volume) containing 250 ppm of the surfactant Trem® 014 (polyhydric alcohol esters). The resulting test suspensions were then used in Tests A-I. Each test was conducted in triplicate, and the results were averaged. Spraying a 200 ppm test suspension to the point of run-off on the test plants was the equivalent of a rate of about 800 g/ha. Unless otherwise indicated, the rating values indicate a 200 ppm test suspension was used. (An asterisk “*” next to the rating value indicates a 40 ppm test suspension was used.) The test suspension was sprayed to the point of run-off on wheat seedlings. The following day the seedlings were inoculated with a spore suspension of Septoria nodorum (the causal agent of Septoria glume blotch) and incubated in a saturated atmosphere at 24° C. for 48 h, and then moved to a growth chamber at 20° C. for 9 days, after which time visual disease ratings were made. Results for Tests A-I are given in Table A. In the Table, a rating of 100 indicates 100% disease control and a rating of 0 indicates no disease control (relative to the controls). A hyphen (-) indicates no test results.

melting point | SMILES | distribution into fat [1] | pest or weed control at 200 ppm (Septoria tritici) | pest or weed control at 200 ppm [2] | pest or weed control at 200 ppm [3] | pest or weed control at 200 ppm (Botrytis cinerea) | Test E rating (% disease control) (Septoria nodorum)
 | Cc1nn(C)c(Nc2c(F)cccc2Cl)c1-c1ccc(F)cc1Br [Compound 4, 4-(2-bromo-4-fluorophenyl)-N-(2-chloro-6-fluorophenyl)-1,3-dimethyl-1H-pyrazol-5-amine] | significantly diminished distribution into fat | 100% | 100% | 100% | 100% | 
 | Cc1nn(C)c(Nc2c(F)cccc2Br)c1-c1ccc(F)cc1Cl [Compound 5, N-(2-bromo-6-fluorophenyl)-4-(2-chloro-4-fluorophenyl)-1,3-dimethyl-1H-pyrazol-5-amine] | significantly diminished distribution into fat | 100% | 100% | 100% | 100% | 
154 to 156 °C | Cc1nn(C)c(Nc2c(F)cccc2Br)c1-c1ccc(F)cc1Br [Compound 7, 4-(2-bromo-4-fluorophenyl)-N-(2-bromo-6-fluorophenyl)-1,3-dimethyl-1H-pyrazol-5-amine] |  | 100% | 100% | 100% | 100% | 
 | Cc1nn(C)c(Nc2ccccc2Cl)c1-c1ccc(F)cc1Br [Compound 8, 4-(2-bromo-4-fluorophenyl)-N-(2-chlorophenyl)-1,3-dimethyl-1H-pyrazol-5-amine] |  | 100% | 100% | 99% | 100% | 
 | Cc1nn(C)c(Nc2ccccc2Br)c1-c1ccc(F)cc1Cl [Compound 9, N-(2-bromophenyl)-4-(2-chloro-4-fluorophenyl)-1,3-dimethyl-1H-pyrazol-5-amine] |  |  |  |  |  | 0* %
 | Cc1nn(C)c(Nc2ccccc2Cl)c1-c1ccc(F)cc1Cl [Compound 10, 4-(2-chloro-4-fluorophenyl)-N-(2-chlorophenyl)-1,3-dimethyl-1H-pyrazol-5-amine] |  |  |  |  |  | 0* %
 | Cc1nn(C)c(Nc2c(F)cccc2F)c1-c1ccc(F)cc1Br [Compound 11, 4-(2-bromo-4-fluorophenyl)-N-(2,6-difluorophenyl)-1,3-dimethyl-1H-pyrazol-5-amine] |  |  |  |  |  | 60* %
